Test results as given in US6441042B1 (dated 2002).

melting point	Structure (SMILES)
165 to 166 °C	CCCC[C@H](CC(=O)NO)C(=O)N[C@H](C(=O)N(C)C)C(C)(C)C
200 °C	CCC[C@H](CC(=O)NO)C(=O)N[C@H](C(=O)NC)C(C)(C)C
